Assay results from patent US7877928B2, “Apparatus for use with a method for mass production of seedling of seed potato” (Koesan County, priority 2005, dated 2011).

Tests used:
[1] = test system: in vitro potato seedlings, potato cultivar "Superior"; assay: Survival rates of stem cuttings of in vitro potato seedlings upon stem-cutting and acclimation according to supplemented components of MS medium; assay type: in vivo
Method: (§1) In order to determine conditions suitable for planting through stem cutting and acclimatizing tissue-cultured plantlets in DSCAC, the in vitro potato seedlings were evaluated for seedling quality and survival rates upon stem-cutting and acclimation according to the amount of supplemented components of MS medium.
(§2) The culture seedlings obtained from growing points collected from a seed potato cultivar, were tested for infection with viruses (PLRV, PVY, PVX, PVM, PVS and AMV) for selection of disease-free individuals. Then, plantlets were planted in 500-ml culture bottles containing 200 ml of a solid medium, which was prepared with a basic MS medium of pH 5.8 supplemented with 9 g/L of agar, and incubated for 25 days in a culture room under 4,500 Lux lighting for 18-20 hrs, and 0 Lux for 4-6 hrs using 4D fluorescent lamps, wherein the room temperature was maintained at 21° C. using an air conditioner. The in vitro potato seedlings were examined for growth states and survival rates upon stem-cutting and acclimation according to the amount of supplemented components of the medium.

[2] = test system: in vitro potato seedlings, potato cultivar "Superior"; assay: Seedling quality (growth state) of in vitro tissue-cultured potato plantlets according to supplemented components of MS medium; assay type: in vivo
Method: as §1, §2

[3] = coumarin 0.010 mg/L + sucrose 30 g/L in MS medium
[4] = coumarin 0.010 mg/L + sucrose 80 g/L in MS medium
[5] = coumarin 0.015 mg/L + sucrose 30 g/L in MS medium
[6] = coumarin 0.015 mg/L + sucrose 80 g/L in MS medium
[7] = coumarin 0.020 mg/L + sucrose 30 g/L in MS medium
[8] = coumarin 0.020 mg/L + sucrose 80 g/L in MS medium
[9] = coumarin 0.025 mg/L + sucrose 30 g/L in MS medium
[10] = coumarin 0.025 mg/L + sucrose 80 g/L in MS medium
[11] = coumarin 0.030 mg/L + sucrose 30 g/L in MS medium
[12] = coumarin 0.030 mg/L + sucrose 80 g/L in MS medium
[13] = coumarin 0.035 mg/L + sucrose 30 g/L in MS medium
[14] = coumarin 0.035 mg/L + sucrose 80 g/L in MS medium
[15] = Table 2: sucrose 30 g/L, coumarin 0 mg/L in MS medium
[16] = Table 2: sucrose 80 g/L, coumarin 0 mg/L in MS medium
[17] = Table 3: sucrose 30 g/L, hyponex 0 g/L in MS medium
[18] = Table 3: sucrose 80 g/L, hyponex 0 g/L in MS medium
[19] = sucrose 20 g/L in MS medium, 25 days
[20] = sucrose 40 g/L in MS medium, 25 days
[21] = sucrose 60 g/L in MS medium, 25 days
[22] = sucrose 80 g/L in MS medium, 25 days
[23] = sucrose 100 g/L in MS medium, 25 days
[24] = sucrose 120 g/L in MS medium, 25 days
[25] = sucrose 140 g/L in MS medium, 25 days

O=c1ccc2ccccc2o1 [Coumarin, coumarin]
Survival rates of stem cuttings [1, 3]: 73 | Survival rates of stem cuttings [1, 4]: 90 | Survival rates of stem cuttings [1, 5]: 78 | Survival rates of stem cuttings [1, 6]: 92 | Survival rates of stem cuttings [1, 7]: 80 | Survival rates of stem cuttings [1, 8]: 100 | Survival rates of stem cuttings [1, 9]: 83 | Survival rates of stem cuttings [1, 10]: 100 | Survival rates of stem cuttings [1, 11]: 88 | Survival rates of stem cuttings [1, 12]: 100 | Survival rates of stem cuttings [1, 13]: 81 | Survival rates of stem cuttings [1, 14]: 100 | Seedling quality and survival rates ([2]; MS medium with 80 g/L sucrose and 0.025 mg/L coumarin, compared with other amounts): highest seedling quality and survival rates | Fresh weight [2, 3]: 0.57 g/plant | Plant length [2, 3]: 6.1 cm/plant | Fresh weight [2, 4]: 1.12 g/plant | Plant length [2, 4]: 7.8 cm/plant | Fresh weight [2, 5]: 0.63 g/plant | Plant length [2, 5]: 6.5 cm/plant | Fresh weight [2, 6]: 1.13 g/plant | Plant length [2, 6]: 7.9 cm/plant | Fresh weight [2, 7]: 0.71 g/plant | Plant length [2, 7]: 6.7 cm/plant | Fresh weight [2, 8]: 1.31 g/plant | Plant length [2, 8]: 8.1 cm/plant | Fresh weight [2, 9]: 0.84 g/plant | Plant length [2, 9]: 6.9 cm/plant | Fresh weight [2, 10]: 1.65 g/plant | Plant length [2, 10]: 9.5 cm/plant | Fresh weight [2, 11]: 0.86 g/plant | Plant length [2, 11]: 6.7 cm/plant | Fresh weight [2, 12]: 1.39 g/plant | Plant length [2, 12]: 8.3 cm/plant | Fresh weight [2, 13]: 0.71 g/plant | Plant length [2, 13]: 6.4 cm/plant | Fresh weight [2, 14]: 1.36 g/plant | Plant length [2, 14]: 8.2 cm/plant

OC[C@H]1O[C@@](CO)(O[C@H]2O[C@H](CO)[C@@H](O)[C@H](O)[C@H]2O)[C@@H](O)[C@@H]1O [Sucrose, sucrose]
Survival rates of stem cuttings [1, 15]: 33 | Survival rates of stem cuttings [1, 16]: 70 | Survival rates of stem cuttings [1, 17]: 28 | Survival rates of stem cuttings [1, 18]: 79 | Survival rates of stem cuttings ([1]; sucrose 20 g/L in MS medium): 27% | Survival rates of stem cuttings ([1]; sucrose 40 g/L in MS medium): 34% | Survival rates of stem cuttings ([1]; sucrose 60 g/L in MS medium): 59% | Survival rates of stem cuttings ([1]; sucrose 80 g/L in MS medium): 71% | Survival rates of stem cuttings ([1]; sucrose 100 g/L in MS medium): 68% | Survival rates of stem cuttings ([1]; sucrose 120 g/L in MS medium): 67% | Survival rates of stem cuttings ([1]; sucrose 140 g/L in MS medium): 72% | Fresh weight [2, 15]: 0.53 g/plant | Plant length [2, 15]: 5.3 cm/plant | Fresh weight [2, 16]: 0.72 g/plant | Plant length [2, 16]: 8.6 cm/plant | Fresh weight [2, 17]: 0.53 g/plant | Plant length [2, 17]: 7.2 cm/plant | Fresh weight [2, 18]: 1.03 g/plant | Plant length [2, 18]: 7.59 cm/plant | Fresh weight [2, 19]: 0.47 g/plant | Plant length [2, 19]: 6.2 cm/plant | Fresh weight [2, 20]: 0.53 g/plant | Plant length [2, 20]: 7.4 cm/plant | Fresh weight [2, 21]: 0.58 g/plant | Plant length [2, 21]: 9.3 cm/plant | Fresh weight [2, 22]: 0.75 g/plant | Plant length [2, 22]: 9.5 cm/plant | Benefit to in vitro plantlets (plant length, fresh weight, survival rates of stem cuttings) ([2]; sucrose 80 g/L in MS medium, compared with other amounts): most beneficial | Fresh weight [2, 23]: 0.69 g/plant | Plant length [2, 23]: 6.1 cm/plant | Fresh weight [2, 24]: 0.63 g/plant | Plant length [2, 24]: 5.2 cm/plant | Fresh weight [2, 25]: 0.67 g/plant | Plant length [2, 25]: 2.1 cm/plant
